From patent US5001156A, “Lipophilic quaternary ammonium salicylates, their use in cosmetics and in dermopharmacy” (priority 1986, dated 1991)

Test system: Propionibacterium acnes strain ATCC 6919
Test: Minimal Inhibitory Concentration (MIC) by the dilution method;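 also: MIC reported in µg/ml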
Assay type: cell-based
Conditions: Propionibacterium acnes ATCC 6919, DMSO

Row | Compound | MIC
1 | CCCCCCCCCCCC(=O)c1ccc(O)c(C(=O)[O-])c1.C[N+](C)(C)C [Compound 15, N,N,N,N-tetramethylammonium 5-dodecanoylsalicylate] | 2.5 µg/mL
2 | CCCCCCCCCCCC(=O)c1ccc(O)c(C(=O)[O-])c1.CCCCCCCCCCCCCCCC[N+]12CCN(CC1)CC2 [Compound 23, 1'-azonia-4'-azabicyclo[2.2.2]octylhexadecane 5-dodecanoylsalicylate] | 1.5 µg/mL
3 | CC(C)(C)CC(C)(C)c1ccc(OCCOCC[N+](C)(C)Cc2ccccc2)cc1.CCCCCCCC(=O)c1ccc(O)c(C(=O)[O-])c1 [Compound 24, benzethonium 5-octanoylsalicylate] | 1.2 µg/mL
4 | CC(C)(C)CC(C)(C)c1ccc(OCCOCC[N+](C)(C)Cc2ccccc2)cc1.CCCCCCCCCCCC(=O)c1ccc([O-])c(C(=O)O)c1 [Compound 25, benzethonium 5-dodecanoylsalicylate] | 2 µg/mL
5 | Hexadecyltrimethylammonium laurate [Compound 2, reference compound] | 26 µg/mL
6 | Hexadecyltrimethylammonium stearate [Compound 3, reference compound] | 25 µg/mL
7 | N-(2-Hydroxyethyl)-N,N,N-trimethylammonium salicylate [Compound 19, reference compound] | > 100 µg/mL
8 | N-Hexadecyl-N,N,N-trimethylammonium salicylate [Compound 1, reference compound] | 21 µg/mL
9 | N-benzyl-N,N,N-trimethylammonium 5-decanoylsalicylate [Compound 13] | 3.2 µg/mL
10 | N-benzyl-N,N-dimethyl-N-hexadecylammonium 5-decanoylsalicylate [Compound 11] | 1.5 µg/mL
11 | N-benzyl-N,N-dimethyl-N-hexadecylammonium 5-dodecanoylsalicylate [Compound 12] | 1 µg/mL
12 | N-benzyl-N,N-dimethyl-N-hexadecylammonium 5-octanoylsalicylate [Compound 10] | 0.54 µg/mL
13 | N-dodecyl-N-methylmorpholinium 5-decanoylsalicylate [Compound 21] | 9 µg/mL
14 | N-hexadecyl-N,N,N-trimethylammonium 5-decanoylsalicylate [Compound 5] | 2.3 µg/mL
15 | N-hexadecyl-N,N,N-trimethylammonium 5-dodecanoylsalicylate [Compound 6] | 3.2 µg/mL
16 | N-hexadecyl-N,N,N-trimethylammonium 5-octanoylsalicylate [Compound 4] | 8 µg/mL
17 | N-hexadecyl-N,N-dimethyl-N-(β-hydroxyethyl)ammonium 5-decanoylsalicylate [Compound 14] | 3.6 µg/mL
18 | N-hexadecyl-N-methylimidazolinium 5-dodecanoylsalicylate [Compound 20] | 13.5 µg/mL
19 | N-hexadecylpyridinium 5-decanoylsalicylate sesquihydrate [Compound 8] | 1.2 µg/mL
20 | N-hexadecylpyridinium 5-dodecanoylsalicylate hydrate [Compound 9] | 1.2 µg/mL
21 | N-hexadecylpyridinium 5-octanoylsalicylate monohydrate [Compound 7] | 2.4 µg/mL
22 | N-methyl-N-octylpiperidinium 5-dodecanoylsalicylate [Compound 22] | 4.9 µg/mL
23 | dimethylethyldodecylammonium 5-decanoylsalicylate [Compound 16] | 6.2 µg/mL
24 | trimethyl-(β-hydroxyethyl)ammonium 5-decanoylsalicylate [Compound 17] | 11 µg/mL
25 | trimethyl-(β-hydroxyethyl)ammonium 5-dodecanoylsalicylate [Compound 18] | 4.8 µg/mL
